Measured values from article PMC4581690, “Targeting Lysine Deacetylases (KDACs) in Parasites” (PLoS Neglected Tropical Diseases, 2015).
Where two headings read alike, the source gives them in different places.

What was measured:
[1] = system: P. falciparum 3D7 strain; experiment: MAL vt: Malaria viability assay; type: cell-based; conditions: Plasmodium falciparum
[2] = system: L929 mouse fibroblast; experiment: CYT vt: cytotoxicity viability assay; type: cell-based
[3] = system: Haemonchus contortus; experiment: microbe, parasite or virus in culture; type: cell-based; conditions: 96 hour, read-out: measured activity (EC50), Endoparasites_DR, H. contortus
[4] = system: L. donovani strain MHOM/SD/00/LS; experiment: LEI axe: Leishmania axenic amastigote assay; type: cell-based
[5] = system: T. brucei strain S427; experiment: HAT vt: Human African trypanosoma viability assay; type: cell-based; conditions: 72 hour, resazurin, read-out: measured activity (IC50), HAT vt, TbbS427
[6] = system: parasite species and L929 mouse fibroblast; experiment: In vitro screening of compounds against parasite panel and mammalian cell line (overall statements); type: cell-based
[7] = system: Brugia malayi; experiment: Endoparasites_DR: endoparasites dose response assay, B. malayi; type: cell-based
[8] = system: human cancer cell lines; parameters: method as in PMID 23526814; conditions: 8b and 10c therein; cited from earlier work
[9] = system: Dirofilaria immitis; experiment: Endoparasites_DR: endoparasites dose response assay, D. immitis; type: cell-based; conditions: 72 h, read-out: measured activity (EC50), Endoparasites_DR, D. immitis
[10] = 3D7, 0.25 h, timepoint 15 minute, read-out: measured activity (IC50), MAL vt, PfDd2
[11] = Mus musculus, L929, read-out: measured activity (IC50), CYT vt, L929
[12] = 72 hour, axenic amastigotes, resazurin, read-out: measured activity (IC50), LEI axe, Ld1S
[13] = 120 h, 5 day, read-out: measured activity (EC50), Endoparasites_DR, B. malayi
[14] = Table 2, column B. malayi, read-out: EC50(IC50)
[15] = Mus musculus, Table 2, column H. sapiens, same values as L929 in Table 1, read-out: EC50(IC50)

| Compound | IC50 [1, 10] | IC50 [2, 11] | IC50 [4, 12] | IC50 [5] | also measured |
| --- | --- | --- | --- | --- | --- |
| CC(C)(C)OC(=O)Nc1cccc(-c2cc(C(=O)NCCCCCCC(=O)NO)no2)c1 [MC2727a] | 0.96 µM | 2.35 µM | – | – | – |
| CCCCCCCC(=O)SCC/C=C/[C@@H]1CC(=O)NCc2nc(cs2)C2=N[C@@](C)(CS2)C(=O)N[C@@H](C(C)C)C(=O)O1 [SD-L-148, Largazole, reference compound] | – | 0.101 µM | – | – | EC50 [3]: 7.1 µM |
| COc1cc(-c2ccccc2)nc(SCc2ccc(/C=C/C(=O)NO)cc2)n1 [MC2126] | 1.92 µM | 1.76 µM | > 5 µM | 0.441 µM | – |
| CN1CCc2c(c3ccccc3n2Cc2ccc(C(=O)NO)cc2)C1 [GRM2, Tubastatin, reference compound] | – | 6.22 µM | > 5 µM | 2.7 µM | – |
| O=C(CCCCSc1nc(-c2ccc(-c3ccccc3)cc2)cc(=O)[nH]1)NO [MC1742] | < 0.01 µM | 1.51 µM | – | – | – |
| Cn1cc(/C=C/C(=O)c2cccc(NC(=O)OC(C)(C)C)c2)cc1C(=O)NO [MC2776] | – | – | – | – | efficacy in the protists ([6]; T. brucei, L. donovani, P. falciparum): did not show any efficacy; EC50 [7, 13]: 4.39 µM; EC50 [7, 14]: 4.39 µM; IC50 [2, 15]: > 10 µM; IC50 [8]: > 10 µM; EC50 [9]: > 10 µM |
| CN(C)Cc1ccc(S(=O)(=O)n2ccc3cc(/C=C/C(=O)NO)ccc32)cc1 [MC3031] | – | 0.555 µM | > 5 µM | 0.267 µM | – |
| CC(C)(C)OC(=O)Nc1cccc(C(=O)/C=C/c2ccc(/C=C/C(=O)NO)cc2)c1 [MC2780] | 0.056 µM | – | 0.473 µM | 0.623 µM | activity across parasites [6]: pan-parasite potential; EC50 [7, 13]: 2.53 µM; EC50 [7, 14]: 2.53 µM; IC50 ([1]; 3D7, Table 2, column P. falciparum, read-out: EC50(IC50)): 0.06 µM; IC50 [2, 15]: 4.81 µM; IC50 ([4]; Table 2, column L. donovani, read-out: EC50(IC50)): 0.47 µM; IC50 on human cancer cell lines [8]: more potent IC50; EC50 [9]: 8.14 µM |
| O=C(CCCCCCC(=O)Nc1ccccc1)NO [GRM1, SAHA, reference compound] | 0.152 µM | – | – | – | – |
| O=C(/C=C/c1ccc(NC(=O)C(Cc2ccccc2)c2ccccc2)cn1)NO (stereo not drawn) [MC2625] | 0.022 µM | 0.311 µM | > 5 µM | 1.18 µM | – |
| CC(C)(C)OC(=O)Nc1ccc(-c2cc(C(=O)NCCCCCCC(=O)NO)no2)cc1 [MC2726] | 0.189 µM | – | – | – | IC50 ([2]; L929 mouse fibroblast, read-out: measured activity (IC50), CYT vt, L929): 1.92 µM |
| O=C(CCCCCSc1nc2ccccc2c(=O)[nH]1)NO [MC1862] | 1.15 µM | 7.12 µM | – | – | – |
